Test results taken from patent US6906107B2, “Use of cyclohexenone derivatives for the manufacture of a medicament in the treatment of dysuria” (Meiji Dairies Corporation, priority 2001, dated 2005).

Assays:
STZ-administered rat [1] = test: Test 1: maximum quantity excreted by single urination, metabolic cage, 24 hours; assay type: in vivo; conditions: STZ 65 mg/kg i.p. rat; Compound 4 i.p. 8 mg/kg daily for 8 weeks; mean ± S.E.; p < 0.05 relative to STZ-administered group
Protocol: Test 1 (Maximum Quantity Excreted by Single Urination)
To a rat, 65 mg/kg of streptozotocin (STZ) was administered intraperitoneally. After intraperitoneal administration of Compound 4, which had been obtained in Preparation Example 4, at a daily dose of 8 mg/kg for 8 weeks from two days after administration of STZ, urination pattern such as urination frequency and urination amount was recorded for 24 hours at 2.5-min intervals by using a metabolic cage.

STZ-administered rat [2] = test: Test 2: bladder capacity and urination efficiency from intravesical pressure under anesthesia; assay type: in vivo; conditions: Compound 4 i.p. 8 mg/kg daily for 8 weeks, mean ± S.E., p < 0.05 relative to STZ-administered group
Protocol: Test 2 (Bladder Capacity and Urination Efficiency)
In a similar manner to Test 1, Compound 4 obtained in Preparation Example 4 was administered intraperitoneally to a rat at a daily dose of 8 mg/kg for 8 weeks two days after administration of STZ. The intravesical pressure was measured under anesthesia. From the results, the bladder capacity and urination efficiency were determined.
Urination efficiency (%)=100×excreted amount/bladder capacity

bladder smooth muscle = test: Test 3: contractive force of extracted bladder smooth muscle after ischemia-reperfusion of abdominal aorta; assay type: in vivo, rat; conditions: for Contractive force (contraction by carbachol) / Contractive force (contraction by concentrated potassium chloride): 30 minutes ischemia, 30 minutes reperfusion; for Contractive force (contraction by concentrated potassium chloride): potassium chloride 100 mM
Protocol: Test 3 ([…]) Compound 4 obtained in Preparation Example 4 was administered intraperitoneally to a rat immediately before the ischemia at a dose of 0.5, 2.0 and 8.0 mg/kg, and the rat was anesthetized by use of pentobarbital. Following 30 minutes ischemia of abdominal aorta of the rats, the abdominal aorta was subjected to perfusion for 30 minutes. Each bladder was then extracted and fixed in organbath filled with Krebs-Henseleit nutritive solution. By the use of TB-612T transducer (product of Nihonkoden), contractive force of bladder smooth muscle due to carbachol or concentrated potassium chloride (100 mM) was measured.

[3] = 0.5 mg/kg i.p. immediately before ischemia
[4] = 2.0 mg/kg i.p. immediately before ischemia
[5] = 8.0 mg/kg i.p. immediately before ischemia

## CC1=C(CCCCCCCCCCCCCCCO)C(C)(C)CCC1=O [Compound 4, 3-(15-Hydroxypentadecyl)-2,4,4-trimethyl-2-cyclohexen-1-one]
STZ-administered rat [1]
  Maximum amount excreted by single urination: 3.71 ± 0.26 mL
STZ-administered rat [2]; 100×excreted amount/bladder capacity
  Urination efficiency: 75.0±6.1%
STZ-administered rat [2]; urination-inducing bladder capacity
  Bladder capacity: 0.54 ± 0.07 mL
Bladder smooth muscle; [3]
  Contractive force (contraction by carbachol): 4.5 ± 0.5 g/mm^2
  Contractive force (contraction by concentrated potassium chloride): 3.0 ± 0.4 g/mm^2
Bladder smooth muscle; [4]
  Contractive force (contraction by carbachol): 5.4 ± 0.4 g/mm^2
  Contractive force (contraction by concentrated potassium chloride): 3.9 ± 0.3 g/mm^2
Bladder smooth muscle; [5]
  Contractive force (contraction by carbachol): 6.5 ± 0.5 g/mm^2
  Contractive force (contraction by concentrated potassium chloride): 3.9 ± 0.4 g/mm^2
Bladder smooth muscle; 0.5, 2.0 and 8.0 mg/kg i.p., summary of Tables 3 and 4
  Effect on contraction of bladder smooth muscle (in words): enhances contraction of bladder smooth muscle depending on its dose
